Counter-ions that a name gives are not always drawn.
What was measured:
5-HT1A receptors = conditions: cited from earlier work
[1] = tested on: ischemic neuronal damage in the gerbil; conditions: cited from earlier work
[2] = tested on: acetic acid-induced writhings in mice; experiment: Antagonism of Acetic Acid-Induced Writhings In Mice; format: in vivo, mouse (NMRI); conditions: Mus musculus, sc; s.c. 30 min before acetic acid 0.5 per cent i.p.; 50 per cent protection
Method: Antagonism of Acetic Acid-Induced Writhings In Mice
In mice i.p. injection of acetic acid induces a writhing syndrome which is antagonized by analgesics (Siegmund et al., 1957; Eckhardt et al., 1957).
Acetic acid 0.5 per cent is injected i.p. (0.15 ml/10 g body weight) to 6 mice (NMRI, either sex weighing 20-25 g) pretreated with physiological saline (controls) and to 6 mice pretreated with test substance. In the controls acetic acid induces a syndrome characterized by contraction of abdomen, turning of trunk and extension of hind limbs. Saline and test substances are administered s.c. 30 min. before acetic acid. The number of writhings is counted 5-15 min. after injection of acetic acid.
The activity is expressed as per cent protection: [formula]
The effect of active substances is evaluated by a dose response curve, log dose on the abscissa, and per cent protection on the ordinate. The potency is expressed as the dose (ED50 in mg/kg giving 50 per cent protection against writhings.
This test is used as a screening test for analgesics. Additional results from other screening tests are required to exclude active anti-writhing substances without analgesic effect.

5HT2 receptor = target: T1, 5HT2 receptor (Rattus norvegicus, UniProt P14842); experiment: In Vitro Inhibition of 5HT2-Receptor Binding (3H-Ketanserine); parameters: species or system rat (male Wistar); conditions: 3H-Ketanserine 0.4 nM, rat frontal cortex, 37° C., 15 min
T1 construct: incubated with isolated cell-membrane fragments; from tissue; host or cells: frontal cortex of male Wistar rats (membranes)
T1 sequence (P14842 whole entry, the tested form may be a part): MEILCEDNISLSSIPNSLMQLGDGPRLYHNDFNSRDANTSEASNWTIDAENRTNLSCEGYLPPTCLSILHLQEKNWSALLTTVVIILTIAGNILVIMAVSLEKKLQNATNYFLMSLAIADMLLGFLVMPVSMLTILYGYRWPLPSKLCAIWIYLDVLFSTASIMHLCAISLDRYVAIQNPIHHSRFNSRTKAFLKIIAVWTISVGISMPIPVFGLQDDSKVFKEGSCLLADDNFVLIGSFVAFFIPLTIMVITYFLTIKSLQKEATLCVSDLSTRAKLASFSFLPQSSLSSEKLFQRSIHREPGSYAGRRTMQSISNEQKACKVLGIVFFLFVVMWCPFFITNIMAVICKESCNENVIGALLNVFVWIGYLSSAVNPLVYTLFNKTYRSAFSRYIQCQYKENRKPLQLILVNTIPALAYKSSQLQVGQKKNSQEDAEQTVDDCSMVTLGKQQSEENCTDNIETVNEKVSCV
Method: In Vitro Inhibition of 5HT2 -Receptor Binding
(§1) Radioactive-labelled ligand ^3 H-Ketanserine is incubated with isolated cell-membrane fragments at 37° C. for a given period of time. Following completed incubation, the incubate is filtered through GF/B filters which are rinsed after filtration to remove unspecifically adhered radioactivity. As opposed to low-molecular compounds, membrane fragments are not rinsed through the filters, the radioactivity bound to the filters indicates the amount of ligand bound specifically as well as non-specifically to the membranes.
The preparation is made in ice bath. Polytron kinematica is rinsed with milli-Q-H2 O before and after use. Male Wistar rats, 150-200 g are decapitated. Frontal cortex is removed quickly and weighed (approx. 200 mg). Frontal cortex is added to centrifuging vial containing 10 ml ice-cold D2 buffer. Homogenization applying polytron kinematica (homogenizer) setting 6 for 20 sec. The homogenizer is rinsed with 10 ml D2 buffer in another centrifuging vial. The 10 ml rinsing buffer is added to the tissue vial. Centrifuged at 18,000 rpm for 10 min. at 4° C. Final pellet is transferred to 125×vol. of same buffer. (Ex. 200 mg in 25 ml D2 buffer). Can be stored for approx. 30 min. at 0° C.
25 μl ^3 H-Ketanserine (0.4 nM)
25 μl test substance/H2 O/blind cyproheptadine (2 μM)
Incubation for 15 min. at 37° C.
10 ml ice-cold 0.9% NaCl is added to the tubes. Filtration is performed through GF/B filters (use gloves). This procedure is repeated. Filters are placed in counting vials, and 4 ml opti- flour is added (prepare in fume cupboard, use gloves). Counting at window 0-19 of the beta-counter (Pachard). Note that receptor box and lid are rinsed thoroughly in H2 O after use to avoid contamination. Further the analytical site is cleaned carefully every day.
(§2) Dissolved in H2 O, EtOH, MeOH or DMSO and further diluted in H2 O. The 5HT2 binding will stand concentrations of up to approx. 5% of these solvents without affecting the binding. Most stock solutions are stable at 4° C. Attention should, however, be paid to any precipitation, change in colour etc. Test-substance dilutions are always made fresh every day. When weighing out test substance, it is attempted to weigh out approx. 1 mg of substance. Less than 0.8 mg must never be weighed out and only infrequently more than 2 mg (for economy reasons) dependent, however, on conc./assay.

5HT1A receptor = target: T2, 5HT1A receptor (Rattus norvegicus, UniProt P19327); experiment: In-Vitro inhibition of 5HT1A receptor binding (3H-8-OH-DPAT); parameters: species or system rat (male Wistar); conditions: 3H-8-OH-DPAT 1 nM, rat frontal cortex and hippocampus, 37° C., 10 min
T2 sequence (P19327 1-422): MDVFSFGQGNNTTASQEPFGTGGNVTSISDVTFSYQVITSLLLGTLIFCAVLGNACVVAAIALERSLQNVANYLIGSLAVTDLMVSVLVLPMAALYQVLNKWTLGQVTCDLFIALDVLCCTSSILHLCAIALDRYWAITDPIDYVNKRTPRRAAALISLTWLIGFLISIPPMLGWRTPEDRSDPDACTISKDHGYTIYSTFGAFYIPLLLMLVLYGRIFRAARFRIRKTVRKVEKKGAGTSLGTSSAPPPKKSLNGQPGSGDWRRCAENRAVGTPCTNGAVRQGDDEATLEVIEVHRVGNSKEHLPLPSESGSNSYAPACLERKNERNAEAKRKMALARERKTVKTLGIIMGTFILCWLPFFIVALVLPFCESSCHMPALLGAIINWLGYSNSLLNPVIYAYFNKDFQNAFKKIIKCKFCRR
Method: In-Vitro inhibition of 5HT1A receptor binding
as §1, with “H-80H-DPAT” for “H-Ketanserine”, “GF/F” for “GF/B”, “nonspecifically” for “non-specifically”
Male Wistar rats, 150-200 g are decapitated, and frontal cortex (approx. 200 mg) and hippocampus (approx. 70 mg) homogenized in 2×10 ml ice-cold DPAT buffer for 20 sec. applying polytron kinematica setting 6. Centrifuged at 20,000 rpm for 10 min. at 4° C. The pellet is transferred to 2×10 ml ice-cold DPAT buffer, homogenized for 20 sec. and preincubated for 10 min. at 37° C. Centrifuged at 20,000 rpm for 10 min. at 4° C. Final pellet added to 125×vol. of same buffer with 10 μM paragylin added (ex. 270 mg tissue in 33.75 ml DPAT buffer containing paragylin). Prepared fresh every day. Use within 30 minutes.
1,250 μl tissue 25 μl ^3 H-80H-DPAT (1 nM) 25 μl test substance/H2 O/blind serotonin (10 μM)
Incubation at 37° C. for 10 min.--at 10 sec. intervals. To the tubes is added 10 ml ice-cold 0.9% NaCl. Filtration through GF/F filters (use gloves). This procedure is repeated. Filters are placed in counting vials and 4 ml optiflow added (prepare in fume cupboard, use gloves). Counted at window 0-19 of the beta- counter (Pachard). Note that receptor box and lid are rinsed thoroughly in H2 O after use to avoid contamination. Further the analytical site is cleaned carefully every day.
as §2, with “The DPAT” for “The 5HT2”, “always prepared” for “always made”, “test substances,” for “test substance,”, “dependent, however” for “dependent, however,”

Alpha1 receptor = experiment: In-Vitro Inhibition of Alpha1-Receptor Binding (3H-Prazosin); parameters: species or system rat (male Wistar); conditions: 3H-Prazosin 0.5 nM, rat cortex, 25° C., 30 min; read-out: Receptor binding IC50 α1
Method: In-Vitro Inhibition of Alpha1 -Receptor Binding, Radioactive-labelled ligand ^3 H-Prazosin is incubated with isolated cell-membrane fragments at 25° C. for a given period of time. Following completed incubation, the incubate is filtered through GF/B filters, which are rinsed following filtration to remove unspecifically adhered radioactivity. As opposed to low- molecular compounds, membrane fragments are not rinsed through the filters, the radioactivity bound to the filters indicates the amount of ligand bound specifically as well as nonspecifically to the membranes. The procedure is performed in ice bath. Polytron kinematica is rinsed with milli-Q-H2 O before and after use. Male Wistar rats, 150-200 g are decapitated, cortex is removed quickly and weighed (approx. 500 mg). Cortex is transferred to a centrifuging vial containing 10 ml ice-cold D2 buffer. Homogenization applying polytron kinematica (homogenizer) setting 6 for 20 sec. The homogenizer is rinsed with 10 ml D2 buffer in another centrifuging vial. The 10 ml rinsing buffer is added to the tissue vial. Centrifugation at 18,000 rpm for 12 min. at 4° C. This is repeated once. Final pellet is added to 400×vol. of same buffer. (Ex. 500 mg cortex in 200 ml D2 buffer). Can be stored for 30 min. at 0° C. 2,000 μl tissue 25 μl ^3 H-Prazosin (0.5 nM) 25 μl test substance/H2 O/blind Phentolamine (10 μM) Incubation for 30 min. at 25° C. 10 ml of ice-cold 0.9% NaCl is added to the tubes and filtered through GF/B filters (use gloves). This procedure is repeated. Filters are placed in counting vials and 4 ml opti-flour is added (perform in fume cupboard, use gloves). Counting is performed at window 0-19 of the betacounter (Pachard). […] Further, the analytical site is cleaned carefully every day after use. Dissolved in H2 O, EtOH, MeOH or DMSO and further diluted in H2 O. […] Most stock solutions are stable at 4° C. Attention should, however, be paid to any precipitation, change in colour etc. Test-substance dilutions are always prepared fresh every day. When weighing out test substances, it is attempted to weigh out approx. 1 mg of substance. Less than 0.8 mg must never be weighed out and only infrequently more than 2 mg (for economy reasons) dependent, however, on conc./ass.

psychosis = conditions: in vivo; cited from earlier work
dopamine D2 receptors = conditions: cited from earlier work
anxiety, depression = conditions: clinical; cited from earlier work
[3] = tested on: 5HT2, alpha1-adrenergic and dopaminergic receptors; conditions: cited from earlier work
5-HT2 receptor = conditions: cited from earlier work

CCCN(CCC)C1CCc2cccc(O)c2C1 (centres unmarked) [Example 8-OH-DPAT, 8-hydroxy-2-(di-n-propylamino)tetralin]
binding affinity / selectivity for 5-HT1A receptors (in words) (5-HT1A receptors): high affinity | protective effect on ischemic neuronal damage in the gerbil (in words) [1]: exhibit a protective effect on ischemic neuronal damage

Cl.O=C(Nc1ccc2c(c1)OCO2)OCCCN1CCN(c2cccc(Cl)c2)CC1 [Example 15, 4-(3-Chlorophenyl)-1-[3-(3,4-methylenedioxyphenylcarbamoyloxy)propyl]piperazine, hydrochloride]
ED50 [2]: 5.6 mg/kg

Cl.O=C(Nc1ccc2c(c1)OCCO2)OCCCN1CCN(c2cccc(Cl)c2)CC1 [Example 18, 4-(3-Chlorophenyl)-1-[3-(3,4-ethylenedioxyphenylcarbamoyloxy)propyl]piperazine, hydrochloride]
ED50 [2]: 7 mg/kg

COc1cc(NC(=S)OCCCN2CCN(c3ccccc3Cl)CC2)cc(OC)c1OC [Example 24, 4-(2-Chlorophenyl)-1-(3-[3,4,5-trimethoxyphenyl(thiocarbamoyl)oxy]propyl)piperazine, hydrochloride]
IC50 (5HT2 receptor): 49 nM | IC50 (5HT1A receptor): 61 nM | IC50 (Alpha1 receptor): 7.5 nM

CCOC(=O)C1(c2ccccc2)CCN(C)CC1 [Pethidine, reference compound]
ED50 [2]: 9.3 mg/kg

Cc1nc2n(c(=O)c1CCN1CCC(c3noc4cc(F)ccc34)CC1)CCCC2 [Risperidone]
antipsychotic properties (in words) (psychosis): antipsychotic properties | antagonism of dopamine D2 receptors (in words) (dopamine D2 receptors): potent antagonist

Cc1nc2sccn2c(=O)c1CCN1CCC(=C(c2ccc(F)cc2)c2ccc(F)cc2)CC1 [Ritanserin]
anxiolytic / antidepressant efficacy (in words) (anxiety, depression): demonstrate clinical efficacy as anxiolytic-antidepressant agents

O=C1CC2(CCCC2)CC(=O)N1CCCCN1CCN(c2ncccn2)CC1 [buspirone]
binding affinity / selectivity for 5-HT1A receptors (in words) (5-HT1A receptors): selectivity for 5-HT1A receptors | anxiolytic / antidepressant efficacy (in words) (anxiety, depression): effective anxiolytic agent

CN1CCN(C2=Nc3cc(Cl)ccc3Nc3ccccc32)CC1 [clozapine]
binding to 5HT2, alpha1-adrenergic and dopaminergic receptors (in words) [3]: nonselectively binds | antipsychotic properties (in words) (psychosis): unprecedented antipsychotic potential

O=C(c1ccc(F)cc1)C1CCN(CCn2c(=O)[nH]c3ccccc3c2=O)CC1 [ketanserin]
affinity for / antagonism of 5-HT2 receptor (in words) (5-HT2 receptor): high affinity

CCN(CC)CCOC(=O)C(Cc1cccc2ccccc12)CC1CCCO1 (centres unmarked) [naftidrofuryl]
protective effect on ischemic neuronal damage in the gerbil (in words) [1]: exhibit a protective effect on ischemic neuronal damage

— patent US5246935A, “Piperazinyl derivatives and methods of treating central nervous system ailments relating to the 5-HT2 receptor system” (Novo Nordisk A/S, priority 1990, dated 1993)
